Assay results as given in patent US8809377B2, “Deubiquitinase inhibitors and methods for use of the same” (The Regents of the University of Michigan, priority 2010, dated 2014).

What was measured:
Assay type in all cases: cell-based
DUB activity = test: Western / HA-UbVS labeling of DUB activity in intact cells
Procedure: (§1) To assay for changes in activity of cellular deubiquitinase enzymes, leukemic cells were lysed in DUB buffer (50 mM Tris pH 7.4, 5 mM MgCl2, 150 mM NaCl) for 10 min at 4° C. The lysates were centrifuged at 20,000 RCF for 10 min and the supernatant was used for DUB labeling. Equal amounts of lysate were incubated with 500 ng of HA-UbVs for 1 hr at room temperature, followed by boiling in reducing sample buffer and resolving by SDS-PAGE. HA immunoblotting was used to detect DUB labeling.
as §1, with “Z138 and HEK293” for “leukemic”, “RFC” for “RCF”, “SDS-PAGE. After protein transfer to nitrocellulose membranes,” for “SDS-PAGE.”
(§2) Cancer Res, 2010. 70(22): p. […] Blood, 2011. 117(11): p. […] Biochem Pharmacol, 2011. 82(4): p. […] Blood, 2007. 109(8): p. 3470-8.

[1] = tested on: Vesicular Stomatitis Virus (VSV)
pStat5 = test: Western blot of pStat5; settings: BV-173 cells, 5 μM, 1 or 2 hours
Procedure: Total cell lysates were prepared by boiling and sonicating cell pellets in 1× Laemmli reducing sample buffer. To prepare detergent soluble and insoluble fractions, cells were lysed in cold isotonic lysis buffer [10 mM Tris-HCl (pH 7.5), 0.5% Triton X-100, 150 mM NaCl along with Mini-Complete and PhosSTOP] for 15 min on ice and centrifuged 10 min at 20,000 RCF. The clarified supernatant was used as the detergent soluble cell fraction. The residual pellet was washed and extracted in Laemmli reducing sample buffer and briefly sonicated to derive the detergent insoluble fraction. Equal volumes of cellular lysate or equal protein amounts were electrophoresed on SDS-PAGE gels and transferred to nitrocellulose membranes (Whatmann, Dassel, Germany). Proteins were detected by immunoblotting.
as §2

Murine norovirus (MNV) = test: Murine norovirus plaque assay; settings: Norwalk virus
Procedure: Viral titers were determined by plaque assay.
Cells were treated with IFN-β as a positive anti-viral control.

p53 = p53 immunoblot; settings: Z138 cells
Procedure: Whole cell lysates were prepared by boiling and sonicating the cell pellets in 1× Laemmli reducing sample buffer. To prepare detergent soluble and insoluble fractions, cells were lysed in cold isotonic lysis buffer [10 mM Tris-HCl (pH 7.5), 0.5% Triton X-100, 150 mM NaCl along with Mini-Complete and PhosSTOP] for 15 min on ice and centrifuged 10 minutes at 20,000 RCF. The clarified supernatant was used as a source of the detergent soluble cell fraction. The detergent insoluble fraction was extracted by the sonication of residual pellet in equal volumes of boiling 1× Laemmli reducing sample buffer. Equal volumes of cellular lysate or equal protein amounts were electrophoresed on SDS-PAGE gels.
An increase in p53 protein levels was observed upon WP1130 treatment. Co-treatment of Z138 cells with cycloheximide (50 μg/mL) and WP1130 confirmed the stabilization rather than induction of p53 protein. Furthermore, a rapid decline in MCL-1 levels upon WP1130 treatment was observed. To re-confirm the role played by USP9x and USP5 in regulating the levels of MCL-1 and p53 respectively, a siRNA based knockdown of USP9x and USP5 in HEK293T cells was performed.

UCH37 = target: T1, UCH37 (Homo sapiens, UniProt Q9Y5K5); test: HA-UbVs labeling of UCH37; settings: Z138 cells, 1, 5 or 10 μM, 1 hour
T1 construct: endogenous in cells; host or cells: Z138
T1 sequence (Q9Y5K5 whole entry): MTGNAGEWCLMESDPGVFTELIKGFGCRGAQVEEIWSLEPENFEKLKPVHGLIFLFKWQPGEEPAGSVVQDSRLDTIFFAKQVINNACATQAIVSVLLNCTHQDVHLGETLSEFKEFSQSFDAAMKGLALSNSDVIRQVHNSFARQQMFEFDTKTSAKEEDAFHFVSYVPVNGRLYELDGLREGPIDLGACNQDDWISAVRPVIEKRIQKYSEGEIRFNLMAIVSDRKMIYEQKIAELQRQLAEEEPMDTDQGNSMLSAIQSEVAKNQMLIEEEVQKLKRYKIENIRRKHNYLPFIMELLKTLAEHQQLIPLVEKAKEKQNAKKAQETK
Procedure: as §1, with “Z138 and HEK293” for “leukemic”, “RFC” for “RCF”, “SDS-PAGE. After protein transfer to nitrocellulose membranes,” for “SDS-PAGE.”
Hemagglutinin-tagged ubiquitin vinyl methyl sulfone (HA-UbVs) acts as a DUB suicide substrate, forming a covalent adduct with active DUB enzymes. Specific cellular DUBs can be identified by anti-HA blotting, as previously shown in various cell types. Changes in specific DUB activities are measurable by monitoring HA-labeling in lysates from control and treated cells. Z138 cells were treated with WP1130 at 1, 5, or 10 μM or AG490 at 250 μM for 1 hours and lysed. 20 μg of clarified supernatant was incubated with 200 nM of HA-UbVS for 1 hr at 37° C. […] An in vitro analysis using cell lysates was performed to investigate direct DUB inhibition by WP1130. Briefly, untreated Z138 cell lysates were incubated with 5 μM WP1130 or vehicle alone for one hour at 37° C., followed by labeling with HA-UbVs.

CCC[C@H](NC(=O)/C(C#N)=C/c1cccc(Br)n1)c1ccccc1 [WP1130]
blocking MNV-1 or DUB activation associated with MNV-1 infection (DUB activity; RAW 264.7, 1.25 μM): ineffective
DUB activity induced by MNV-1 infection (HA-UbVS) (DUB activity; RAW 264.7, anti-viral effective concentrations): block DUB activity
block of virus infection [1]: not
phosphorylation of Stat5 (pStat5): loss of phosphorylation of Stat5
log reduction at 5 µM (Murine norovirus (MNV); RAW264.7, MNV, murine macrophages (RAW264.7 or bone marrow derived), 5 μM, 30 min pre-treatment, 8-12 hr, read-out: Log inhibition by plaque assay): ~2
EC50 (Murine norovirus (MNV); RAW264.7, MNV-1, RAW 264.7, 12 hours postinfection, read-out: anti-viral EC50 activity): 1900 nM
p53 protein levels (p53): increase
HA-UbVS labeling of UCH37 (UCH37): dose-dependent and time reduction in the labeling
